Data from patent publication US5693668A, “Acetylcholinesterase inhibitors” (priority 1989, dated 1997).
Like-named read-outs stand apart in the source and are kept apart here.

What was measured:
[1] = tested on: plasma cholineesterase; assay: Inhibition of plasma cholinesterase activity during patch application in dogs; type: in vivo, Beagle dog; details: `lead` prototype patch, throughout patch application (96 hours)
Experimental: (§1) Transdermal Bioavailability of MDL 73,745 from a prototype transdermal delivery system in Beagle Dogs
(§2) A `lead` prototype formulation was then evaluted in an in vivo dog model. […] The rate of in vivo transdermal delivery in the dog was calculated to be 7.7 μg/cm^2 /hr.

[2] = In vivo transdermal delivery of MDL 73,745 from prototype patch in Beagle dogs; parameters: species or system Beagle dog
Experimental: as §1, §2
Three male Beagle dogs were studied. Animals were fasted 12 h before drug administration but had free access to drinking water. The following single doses of [^14 C]-MDL 73,745 were administered: intravenous (iv): 1 and 2 mg/kg; oral (po): 10 mg/kg; subcutaneous (sc): 10 mg/kg. There was a two week wash-out period between each administration. Drug was administered as a suspension in 0.5% methyl cellulose.
From the equation: S.ko=Cl.Css
S=area (cm^2) of the patch
Css =steady-state concentration (ng/ml)
ko-rate of release from the delivery system per unit surface area can be calculated: […]

[3] = Aqueous solubility of MDL 73,745 in Trycol medium; type: physicochemical; details: in presence of Trycol (polyethylene glycol 20 Oleyl ether), 5% in 0.9% sodium chloride
Experimental: (§3) Dermal elution media: A 5% solution of polyethylene glycol 20 Oleyl ether (Trycol®, Emery) in 0.9% sodium chloride was used as the receptor medium for the modified Franz Diffusion Cells. […] Temperature of the dermal elution media was maintained at 37° C. using a thermostated constant temperature circulating water bath.

[4] = type: in vitro ADME, hairless mouse (Outbred Nude mouse); details: for skin permeation rate: 50% w/w drug loading
Experimental: An in vitro excised hairless mouse skin/modified Franz Diffusion Cell model was used to evaluate skin permeability of neat MDL 73,745, the title compound of Example 1, and permeation profile of MDL 73,745 from various prototype transdermal delivery systems. Prototype transdermal delivery systems containing MDL 73,745 were prepared in various acrylic, silastic, ethylene vinyl acetate copolymer, and rubber based pressure sensitive adhesives and evaluated in the in vitro skin permeation cell model.
In vitro skin permeation model: For this study an in vitro finite-dose glass diffusion cell (modified Franz Diffusion Cell)/freshly excised hairless mouse skin model was used. The diffusion consists of two parts: (i) a receptor compartment which is an upright reservoir jacketed by a glass chamber on the outside. Experiments were conducted at 37° C. by circulating thermostatically controlled water at 37° C. in this jacket and (ii) donor cap, which is clamped together with the receptor compartment with a metal clamp. A piece of skin/(transdermal formulation) is sandwiched between the donor and the receptor compartments and clamped together. Sampling from the receptor compartment is taken at predetermined time intervals through the sampling port.
Hairless mouse: Outbred Nude mouse {CRL NU/NU (CD1) BR, 6-8 weeks old, male} from Charles River, Mass.
Excised skin: Immediately following sacrifice by CO2 gas, a portion (3.5×3.5 cm) of the full-thickness abdominal skin was carefully excised from the hairless mouse. The dermal side of the skin was carefully cleaned of any adhering subcutaneous tissue and/or blood vessels. Extreme care was taken not to scratch or damage the stratum corneum. Before mounting onto the diffusion cell, each piece of skin was carefully inspected to insure that the skin was not damaged.
as §3
Skin permeation profile from neat MDL 73,745 and from Prototype formulations: Full-thickness skin, prepared freshly as outlined above, was mounted in a modified Franz Diffusion Cell with the stratum corneum side facing upward. To study the permeation profile of neat MDL 73,745, 50 μl of MDL 73,745 was uniformly applied onto the stratum corneum. The donor cap was placed over the skin and the whole assembly was then securely clamped together. The donor cap was covered with a piece of aluminum foil to reduce the volatilization of MDL 73,745. To evaluate the skin permeation profile of MDL 73,745 from a prototype transdermal formulation, a unit of prototype transdermal system (about 4.9 cm^2 circular) containing MDL 73,745 was placed onto the skin with the drug releasing side in intimate contact with the stratum corneum (slight pressure was applied to insure good contact). The donor cap was placed over the skin and the whole assembly was then securely clamped together.
Dermal elution medium (5% w/w Trycol® in normal saline) was then introduced into the receptor compartment through the sampling port. At predetermined time intervals, the entire volume of the receptor solution was withdrawn and immediately replaced with the same volume of fresh, drug free dermal elution medium (5% w/w Trycol® in normal saline), maintained at 37° C. The concentration of MDL 73,745 was determined by a sensitive HPLC method described under Analytical Method section below.
Analytical Method: An automated high performance liquid chromatograph equipped with a gradient pump (Waters Model 600E), autoinjector/sampler (Waters, Model 715 WISP), and a variable wavelength UV detector (Waters, Model 490) was used. The autoinjector/sampler was maintained at 2° C. to reduce possible evaporation/degradation of MDL 73,745 in the sample. […]

Structure (SMILES): C[Si](C)(C)c1cccc(C(=O)C(F)(F)F)c1 [MDL 73,745, 2,2,2-Trifluoro-1-(3-trimethylsilylphenyl) ethanone]
- inhibition of plasma cholineesterase activity [1]: inhibition of plasma cholineesterase activity was achieved
- rate of in vivo transdermal delivery ([2]; `lead` prototype patch, dog, calculated): 7.7 μg/cm^2 /hr
- plasma level ([2]; `lead` prototype patch, throughout patch application (96 hours)): constant, steady state plasma level
- ko, rate of release from the delivery system per unit surface area ([2]; patch 70% w/w MDL 73,745 in DuroTak 80-1074, 5 mg/cm^2, same for both doses, from S.ko=Cl.Css): 7.7 μg/hr/cm^2
- aqueous solubility [3]: increases the aqueous solubility
- rate of transdermal delivery ([4]; 3M acrylic adhesive #9871, 50% w/w drug loading): 13.01 μg/cm^2 /hr
- rate of transdermal delivery ([4]; 3M acrylic adhesive #9871, 60% w/w drug loading): 21.04 μg/cm^2 /hr
- transdermal delivery profile ([4]; 3M acrylic adhesive #9871 prototypes): constant, zero-order profile
- skin permeation rate ([4]; prototype in Gelva 737): 12.95 μg/cm^2 /hr
- skin permeation rate ([4]; prototype in Gelva 788): 8.63 μg/cm^2 /hr
- skin permeation profile ([4]; DuroTak 72-9718 rubber based PSA prototypes): constant, zero-order profile
- rate of transdermal delivery ([4]; DuroTak 72-9718 rubber based PSA, 20% w/w drug loading): 12.92 μg/cm^2 /hr
- rate of transdermal delivery ([4]; Eva-Tak 72-9660 prototype containing 50% drug): 33.86 μg/cm^2 /hr
- rate of transdermal delivery ([4]; Eva-Tak 72-9660 prototype containing 60% drug): 20.59 μg/cm^2 /hr
- transdermal delivery profile ([4]; Eva-Tak 72-9660 prototypes, throughout duration of patch application): controlled, zero-order fashion
- rate of transdermal delivery ([4]; Nacor 38-4515 prototype containing 50% w/w drug): 19.18 μg/cm^2 /hr
- transport profile through skin ([4]; neat MDL 73,745): controlled zero order fashion
- rate of transdermal delivery ([4]; neat MDL 73,745, 50 μl on stratum corneum): 208.21 μg/cm^2 /hr
- period of controlled, zero-order transdermal delivery ([4]; prototypes in various acrylic PSA): at least 24 hours
